US10676492B2, “Branched amphiphilic lipids” (UNIVERSITÉ DE BRETAGNE OCCIDENTALE, priority 2015, dated 2020)

Legend:
[1] = Measurement of the size and zeta potential of liposomes (Zetasizer Nano ZS); format: physicochemical; conditions: liposomal solution in water, 25° C.
Protocol: The cationic lipids were formulated in a liposomal solution by the method of hydration of a lipid film. Initially, a fraction of a concentrated solution of the cationic lipid is placed in a glass tube and evaporated to give a thin lipid film. 1 mL of water is then added to the film and the film is hydrated for 3 days at 4° C. The solution is then vortexed (1 min) and placed under ultrasound (30 to 60 min) at 45 kHz. Then 150 μL of the liposomal solution is diluted in 1.5 mL of sterile water. After filtration ([…]) of the liposomal solution, the size and the zeta potential of liposomes and lipoplexes are determined.
The size and zeta potential (ξ) of the liposomes and of the lipoplexes were measured with a Zetasizer Nano ZS (Malvern Instruments) at 25° C. after a suitable dilution of the formulations. For the measurements of the lipoplexes, each test used […] of plasmid DNA in water with the required amount of cationic lipid studied in order to form lipoplexes with charge ratios ranging from 0.5 to 8.0. For the measurements of the liposomes, a quantity of lipid equivalent to a mixture having a 1.0 charge ratio in water was used.

[2] = Structural organisation study via 31P NMR (Hahn echo) of hydrated lipids; format: physicochemical; conditions: hydrated medium, ambient temperature
Protocol: A stock solution of a cationic lipid is prepared in the chloroform. A volume of stock solution corresponding to a weight in lipids between 50 mg and 100 mg is pipette into a haemolysis tube and the chloroform is evaporated under of flow of N2 in such a way as to obtain a lipid film. 500 μL of water is then added and the mixture is subjected to ultrasound until complete dispersion of the lipid film. The mixture is lysed for one night. A volume of distilled water is then added in order to obtain a solution with a concentration of 100 mg·mL^−1. In order to ensure the balance of the sample, three cycles −198° C./50° C. are carried out: the sample is placed at −198° C. (liquid nitrogen) for 5 min, then the sample is placed in a water bath at 50° C. for 30 min and is vortexed.
The NMR ^31P spectra were acquired with a Hahn echo sequence (90°-τ-180°-τ-acq). The acquisition parameters were as follows: spectral window of 200 KHz, a pulse π/2 with a duration of […], a recycling period of 5 s and an echo period of 40 μs. The number of acquisitions depends on the volume of the sample and the acquisition temperature, and is between 128 and 1700 scans. The temperature of the sample is balanced for 30 min before the start of the acquisition. Lorentzian noise is filtered over the entire spectral window before the Fourier transform on the top of the echo. […]

PdI [1]: 0.26
Size (nm) [1]: 94 nm
Zeta Potential (mV) [1]: +54 mV
structure of the supramolecular aggregates (self-organisation) [2]: lamellar form
SMILES: CCCCCCCC/C=C/CCCCCCCCOP(=O)(NCC[N+](C)(C)C)OCCCCCCCC/C=C/CCCCCCCC.[I-] [Compound I-1]
